Legend:
[1] = system: CE of recombinant pET30a(+)/BL21(DE3); format: in vitro ADME, E. coli; settings: CE of pET30a(+)/BL21(DE3) added at 12 h; PBS; 30 °C; HPLC-UV 238 nm; Figure S1
Procedure: The experiments were carried out with five treatments as following: • Control groups for treatment A and treatment C: the CEs of recombinant bacteria pGEX-4T-1/BL21(DE3) without protein USTB-05-A and recombinant bacteria pET30a(+)/BL21(DE3) without protein USTB-05-C were added into two tubes with PBS containing NOD, respectively. • Treatment A: the CE of recombinant bacteria pGEX-4T-1/USTB-05-A/BL21(DE3) containing crude protein USTB-05-A was added into PBS containing NOD. • Treatment C: the CE of recombinant bacteria pET30a(+)/USTB-05-C/BL21(DE3) containing crude protein USTB-05-C was added into PBS containing NOD. • Treatment AC: at 0 h, the CE containing crude protein USTB-05-A was added into PBS containing NOD. At 12 h, the CE containing crude protein USTB-05-C was added to the above solution. • Control group for treatment A and treatment C: at 0 h, the CE containing crude protein USTB-05-A was added into the test tubes with PBS containing NOD. At 12 h, the CE of pET30a(+)/BL21(DE3) without protein USTB-05-C was added to the above solution. […]
The concentration of NOD was detected by high performance liquid chromatography (HPLC) (LC10ATVP, Shimadzu Co., Ltd., Tokyo, Japan) with a UV diode array detector at 238 nm. […] The spectra of NOD and its biodegradation products were detected at the time of HPLC analysis.

[2] = system: USTB-05-A; settings: initial NOD 13.7 mg L^−1; CE protein 158 mg L^−1; PBS; 30 °C, 200 rpm; 12 h to 24 h; HPLC-UV 238 nm
[3] = system: USTB-05-C; settings: CE protein 165 mg L^−1 added at 12 h; followed from 13 h until 24 h; PBS; 30 °C, 200 rpm; HPLC-UV 238 nm
[4] = system: cell-free extract (CE) of Sphingopyxis sp. USTB-05; settings: cited from earlier work
[5] = system: USTB-05-A mutants; settings: cited from earlier work
[6] = system: MlrA point mutants H260A and E265A; settings: cited from earlier work

In the case of `C/C=C(/C(=O)N[C@@H](C(=O)O)[C@H](C)C(=O)N[C@@H](CCCNC(=N)N)C(=O)O)N(C)C(=O)CC[C@@H](NC(=O)[C@@H](C)[C@@H](N)/C=C/C(C)=C/[C@H](C)[C@H](Cc1ccccc1)OC)C(=O)O` [product A], the “concentration of product A with control CE without USTB-05-C (control group of treatment AC)” value [1] is reported as “constant”, the “peaks after the first 12 h until 24 h with CE containing USTB-05-A only (treatment A)” value [2] is reported as “remained constant” and the “change of product A peak after addition of CE containing USTB-05-C (treatment AC)” value [3] is reported as “decreased and disappeared”.

For MC-LR, the “time to complete biodegradation by CE” value [4] is listed as at most 3 h, the “MC-LR biodegradation by N264A mutant” value [5] is listed as “significant decrease in MlrA activity” and the “MC-LR biodegradation by W176A and W201A mutants” value [5] is listed as “decrease in the reaction rate to some extent”. The “MC-LR biodegradation by point mutants E172A, H205A and H260A” value [5] was “complete loss of enzymatic activity” and the “MC-LR biodegradation by MlrA point mutants H260A and E265A” value [6] was “no activity”.

For MC-YR, the “time to complete elimination by CE” value [4] is listed as at most 10 h.

Reference: article PMC6832836 (Toxins, 2019)
